Tests used:
Assay in all cases: Greenhouse herbicidal activity assay, post-emergence
Type in all cases: in vivo
Leptochloa chinensis = settings: Post-emergence test, rate 150 g a.i./hm^2, grade by fresh weight inhibition rate; for pest or weed control at 150 g/ha: Dinebra chinensis, read-out: Control efficacy grade, Leptochloa chinensis
Summary of the method: (§1)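 Scores reflect fresh weight inhibition assessed 14-21 days after treatment, with grade A meaning ≥80% to 100% and grade E meaning <20%. Plants, raised in nutrient-soil pots inside a growth chamber, were sprayed on the foliage at the 3-6 leaf stage.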

Cyperus iria = settings: Post-emergence test, rate 150 g a.i./hm^2, grade by fresh weight inhibition rate; for pest or weed control at 150 g/ha: Cyperus iria, read-out: Control efficacy grade, Cyperus iria
Summary of the method: as §1

Digitaria sanguinalis = settings: Post-emergence test, rate 150 g a.i./hm^2, grade by fresh weight inhibition rate; for pest or weed control at 150 g/ha: Digitaria sanguinalis, read-out: Control efficacy grade, Digitaria sanguinalis
Summary of the method: as §1

Eclipta prostrata = settings: Post-emergence test, rate 150 g a.i./hm^2, grade by fresh weight inhibition rate; for pest or weed control at 150 g/ha: Eclipta prostrata, read-out: Control efficacy grade, Eclipta prostrata
Summary of the method: as §1

Echinochloa crusgalli = settings: Post-emergence test, rate 150 g a.i./hm^2, grade by fresh weight inhibition rate; for pest or weed control at 150 g/ha: Echinochloa crus-galli, read-out: Control efficacy grade, Echinochloa crusgalli
Summary of the method: as §1

SMILES	Control efficacy grade, Leptochloa chinensis (Leptochloa chinensis)	Control efficacy grade, Cyperus iria (Cyperus iria)	Control efficacy grade, Digitaria sanguinalis (Digitaria sanguinalis)	Control efficacy grade, Eclipta prostrata (Eclipta prostrata)	Control efficacy grade, Echinochloa crusgalli (Echinochloa crusgalli)	pest or weed control at 150 g/ha (Leptochloa chinensis) [%]	pest or weed control at 150 g/ha (Cyperus iria) [%]	pest or weed control at 150 g/ha (Digitaria sanguinalis) [%]	pest or weed control at 150 g/ha (Eclipta prostrata) [%]	pest or weed control at 150 g/ha (Echinochloa crusgalli) [%]
CCCSc1c(S(C)(=O)=O)ccc(C(=O)Nc2ncnn2C)c1Cl [Compound 2-1]	A (Fresh weight inhibition rate≥80% to 100%)	A (Fresh weight inhibition rate≥80% to 100%)	A (Fresh weight inhibition rate≥80% to 100%)	A (Fresh weight inhibition rate≥80% to 100%)	A (Fresh weight inhibition rate≥80% to 100%)					
CCCS(=O)(=O)c1c(S(C)(=O)=O)ccc(C(=O)Nc2ncnn2C)c1Cl [Compound 2-5]	A (Fresh weight inhibition rate≥80% to 100%)	A (Fresh weight inhibition rate≥80% to 100%)	B (Fresh weight inhibition rate≥260% to <80%)	A (Fresh weight inhibition rate≥80% to 100%)	B (Fresh weight inhibition rate≥260% to <80%)					
CC(C)Sc1c(S(C)(=O)=O)ccc(C(=O)Nc2ncnn2C)c1Cl [Compound 2-6, 2-chloro-3-(isopropylthio)-N-(1-methyl-1H-1,2,4-triazol-5-yl)-4-(methylsulfonyl)benzamide]						80 to 100	80 to 100	80 to 260	80 to 100	80 to 100
Cn1ncnc1NC(=O)c1ccc(S(C)(=O)=O)c(SCC2CC2)c1Cl [Compound 2-27]	A (Fresh weight inhibition rate≥80% to 100%)	A (Fresh weight inhibition rate≥80% to 100%)	A (Fresh weight inhibition rate≥80% to 100%)	A (Fresh weight inhibition rate≥80% to 100%)	A (Fresh weight inhibition rate≥80% to 100%)					
Cn1ncnc1NC(=O)c1ccc(S(C)(=O)=O)c(SC2CCC2)c1Cl [Compound 2-37]	A (Fresh weight inhibition rate≥80% to 100%)	A (Fresh weight inhibition rate≥80% to 100%)	B (Fresh weight inhibition rate≥260% to <80%)	A (Fresh weight inhibition rate≥80% to 100%)	A (Fresh weight inhibition rate≥80% to 100%)					
C=CCSc1c(S(C)(=O)=O)ccc(C(=O)Nc2ncnn2C)c1Cl [Compound 2-67]	B (Fresh weight inhibition rate≥260% to <80%)	A (Fresh weight inhibition rate≥80% to 100%)	B (Fresh weight inhibition rate≥260% to <80%)	A (Fresh weight inhibition rate≥80% to 100%)	B (Fresh weight inhibition rate≥260% to <80%)					
C=CCS(=O)(=O)c1c(S(C)(=O)=O)ccc(C(=O)Nc2ncnn2C)c1Cl [Compound 2-71]	A (Fresh weight inhibition rate≥80% to 100%)	A (Fresh weight inhibition rate≥80% to 100%)	A (Fresh weight inhibition rate≥80% to 100%)	A (Fresh weight inhibition rate≥80% to 100%)	A (Fresh weight inhibition rate≥80% to 100%)					
CCCSc1c(S(C)(=O)=O)ccc(C(=O)Nc2nnc(C)o2)c1Cl [Compound 3-1]	A (Fresh weight inhibition rate≥80% to 100%)	A (Fresh weight inhibition rate≥80% to 100%)	A (Fresh weight inhibition rate≥80% to 100%)	A (Fresh weight inhibition rate≥80% to 100%)	A (Fresh weight inhibition rate≥80% to 100%)					
Cc1nnc(NC(=O)c2ccc(S(C)(=O)=O)c(SC(C)C)c2Cl)o1 [Compound 3-6, 2-chloro-3-(isopropylthio)-N-(5-methyl-1,3,4-oxadiazol-2-yl)-4-(methylsulfonyl)benzamide]						80 to 100	80 to 100	80 to 100	80 to 100	80 to 100
Cc1nnc(NC(=O)c2ccc(S(C)(=O)=O)c([S+]([O-])C(C)C)c2Cl)o1 (stereo not shown) [Compound 3-7, 2-chloro-3-(isopropylsulfinyl)-N-(5-methyl-1,3,4-oxadiazol-2-yl)-4-(methylsulfonyl)benzamide]						80 to 100	80 to 100	80 to 100	80 to 100	80 to 100
CCCCSc1c(S(C)(=O)=O)ccc(C(=O)Nc2nnc(C)o2)c1Cl [Compound 3-11]	A (Fresh weight inhibition rate≥80% to 100%)	A (Fresh weight inhibition rate≥80% to 100%)	A (Fresh weight inhibition rate≥80% to 100%)	A (Fresh weight inhibition rate≥80% to 100%)	B (Fresh weight inhibition rate≥260% to <80%)					
Cc1nnc(NC(=O)c2ccc(S(C)(=O)=O)c(SCC(C)C)c2Cl)o1 [Compound 3-27]	A (Fresh weight inhibition rate≥80% to 100%)	A (Fresh weight inhibition rate≥80% to 100%)	A (Fresh weight inhibition rate≥80% to 100%)	A (Fresh weight inhibition rate≥80% to 100%)	A (Fresh weight inhibition rate≥80% to 100%)					
Cc1nnc(NC(=O)c2ccc(S(C)(=O)=O)c(SCC3CC3)c2Cl)o1 [Compound 3-37]	A (Fresh weight inhibition rate≥80% to 100%)	A (Fresh weight inhibition rate≥80% to 100%)	A (Fresh weight inhibition rate≥80% to 100%)	A (Fresh weight inhibition rate≥80% to 100%)	A (Fresh weight inhibition rate≥80% to 100%)					
Cc1nnc(NC(=O)c2ccc(S(C)(=O)=O)c(SCCC(C)C)c2Cl)o1 [Compound 3-52]	A (Fresh weight inhibition rate≥80% to 100%)	A (Fresh weight inhibition rate≥80% to 100%)	B (Fresh weight inhibition rate≥260% to <80%)	A (Fresh weight inhibition rate≥80% to 100%)	B (Fresh weight inhibition rate≥260% to <80%)					
Cc1nnc(NC(=O)c2ccc(S(C)(=O)=O)c(SC3CC3)c2Cl)o1 [Compound 3-77]	A (Fresh weight inhibition rate≥80% to 100%)	A (Fresh weight inhibition rate≥80% to 100%)	A (Fresh weight inhibition rate≥80% to 100%)	A (Fresh weight inhibition rate≥80% to 100%)	A (Fresh weight inhibition rate≥80% to 100%)					
Cc1nnc(NC(=O)c2ccc(S(C)(=O)=O)c(SC3CCC3)c2Cl)o1 [Compound 3-82]	A (Fresh weight inhibition rate≥80% to 100%)	A (Fresh weight inhibition rate≥80% to 100%)	A (Fresh weight inhibition rate≥80% to 100%)	A (Fresh weight inhibition rate≥80% to 100%)	A (Fresh weight inhibition rate≥80% to 100%)					
Cc1nnc(NC(=O)c2ccc(S(C)(=O)=O)c(SC3CCCC3)c2Cl)o1 [Compound 3-87]	A (Fresh weight inhibition rate≥80% to 100%)	A (Fresh weight inhibition rate≥80% to 100%)	A (Fresh weight inhibition rate≥80% to 100%)	A (Fresh weight inhibition rate≥80% to 100%)	A (Fresh weight inhibition rate≥80% to 100%)					
Cc1nnc(NC(=O)c2ccc(S(C)(=O)=O)c(SCC(F)(F)F)c2Cl)o1 [Compound 3-97]	A (Fresh weight inhibition rate≥80% to 100%)	A (Fresh weight inhibition rate≥80% to 100%)	A (Fresh weight inhibition rate≥80% to 100%)	A (Fresh weight inhibition rate≥80% to 100%)	A (Fresh weight inhibition rate≥80% to 100%)					
Cc1nnc(NC(=O)c2ccc(S(C)(=O)=O)c(SCC(F)F)c2Cl)o1 [Compound 3-102]	A (Fresh weight inhibition rate≥80% to 100%)	A (Fresh weight inhibition rate≥80% to 100%)	A (Fresh weight inhibition rate≥80% to 100%)	A (Fresh weight inhibition rate≥80% to 100%)	A (Fresh weight inhibition rate≥80% to 100%)					
C=CCSc1c(S(C)(=O)=O)ccc(C(=O)Nc2nnc(C)o2)c1Cl [Compound 3-112]	A (Fresh weight inhibition rate≥80% to 100%)	A (Fresh weight inhibition rate≥80% to 100%)	A (Fresh weight inhibition rate≥80% to 100%)	A (Fresh weight inhibition rate≥80% to 100%)	A (Fresh weight inhibition rate≥80% to 100%)					
